# Values joined by “and” are separate entries in the source; they are usually repeats but may differ in a detail not shown here. Identical values can stand only once.
# Assays:
# Format in all cases: functional, Homo sapiens
# Set-up in all cases: dose or concentration left out as unconfirmed
# [1] = test system: Colon cancer organoid; experiment: (§1) Image-based profiling of donated chemical probes and chemogenomic kinase set in O06 CRC organoid. Image analysis is performed on the sum area metric, and the data were normalized to the DMSO control. After imaging the organoid viability is measured using the OneGloEX Luciferase Assay System. The normalized viability data and sum area are reported.
# [2] = test system: Colon cancer organoid; experiment: as §1, with “O09” for “O06”
# [3] = test system: Colon cancer organoid; experiment: as §1, with “O21” for “O06”
SMILES,Cell Viability ([1]; Replication number 1),Cell Viability ([1]; Replication number 2),Cell Viability ([2]; Replication number 1),Cell Viability ([2]; Replication number 2),Cell Viability ([3]; Replication number 1),Cell Viability ([3]; Replication number 2)
CN(C)[C@@H]1CCN(c2cc(-c3ccccc3)nc3ccnn23)C1 [(R)-ZINC-3573],99.7285% and 119.514%,116.173% and 112.206%,69.8572% and 93.5976%,61.7883% and 100.515%,105.256% and 112.95%,102.245% and 84.1264%
CC(C)(C)c1cc(NC(=O)Nc2ccc(-c3cn4c(n3)sc3cc(OCCN5CCOCC5)ccc34)cc2)no1 [QUIZARTINIB],39.693% and 48.7411%,34.5672% and 63.5476%,85.316% and 55.6023%,92.2589% and 77.476%,67.5016% and 73.0314%,71.418% and 77.7258%
CC(=O)N1CCC(c2ccc(C(=O)NC(=N)N)cc2C(F)(F)F)CC1 [BI 9627],92.5077% and 96.2529%,95.2505% and 62.3038%,138.648% and 103.929%,116.481% and 107.777%,89.2518% and 118.176%,98.5958% and 100.51%
CC1CCN(c2ccnc(NCc3cn(C)cn3)n2)CC1 [TP-040],114.457% and 102.441%,78.7525% and 90.5361%,164.974% and 118.043%,162.348% and 114.826%,98.573% and 105.41%,113.293% and 110.51%
COc1ccc(CCc2nc3cc(-c4c(C)noc4C)ccc3n2C[C@H](C)N2CCOCC2)cc1Cl,175.76% and 138.685%,131.173% and 129.766%,60.3888% and 74.4204%,92.6649% and 71.2702%,102.391% and 140.496%,95.0347% and 135.859%
COCCc1ccc(-c2c(C)nc3c(N4CCOCC4)ccnn23)cn1 [JNJ-42396302],105.08% and 93.5817%,103.056% and 100.227%,173.111% and 114.826%,149.141% and 104.184%,87.7084% and 77.6404%,105.989% and 98.0422%
C[C@@]1(Cc2ccc(C#N)cc2)C(=O)N(c2cc(Cl)cc(Cl)c2)c2ncc(C(=O)NC3(c4nc(C5CCC5)no4)CC3)n21 [BI 9446],120.452% and 119.438%,141.276% and 120.817%,73.271% and 85.2933%,87.2778% and 108.945%,115.902% and 114.683%,106.853% and 94.898%
O=C(c1ccc(F)c(F)c1Nc1ccc(I)cc1F)N1CC(O)([C@@H]2CCCCN2)C1 [COBIMETINIB],2.921% and 4.652%,3.136% and 6.437%,5.994% and 14.4616%,,18.944% and 20.5157%,17.3316% and 26.4843%
COc1ccccc1C(=O)Nc1cc2c(cc1N1CCCC1)n(C)c(=O)n2C,152.076% and 120.081%,178.087% and 127.616%,131.649% and 89.49%,142.608% and 94.0767%,97.0271% and 91.1169%,104.009% and 97.7327%
Cl.O=C(O)c1cc(-c2ccc(C3CCNCC3)cc2)c2ccc(-c3ccc(C(F)(F)F)cc3)cc2c1,91.1935% and 100.081%,81.9268% and 87.9385%,82.2902% and 109.541%,53.2933% and 84.4568%,122.525% and 121.681%,120.065% and 115.738%
CCOCCn1cc(C(=O)Nc2ccc(-n3nc(-c4cccnc4)cc3C(F)(F)F)cn2)ccc1=O [BI 1935],106.067% and 119.906%,111.838% and 96.8907%,99.959% and 99.8673%,61.8115% and 83.5341%,115.071% and 97.8008%,110.735% and 98.9796%
FC(F)c1nc2ccccc2n1-c1nc(N2CCOCC2)nc(N2CCOCC2)n1 [ZSTK-474],51.8719% and 106.162%,61.9887% and 87.8149%,70.4686% and 75.7987%,41.1971% and 64.5183%,72.4296% and 85.8537%,82.8986% and 74.2713%
CN(C)C(=O)c1cc2cnc(Nc3ccc(N4CCNCC4)cn3)nc2n1C1CCCC1 [RIBOCICLIB],18.4025% and 48.7411%,14.7054% and 40.1028%,49.4558% and 44.8808%,42.3849% and 44.8119%,76.3687% and 83.6237%,91.6892%
CN(C)C(=O)Cn1cc(-c2nc(C3(c4ccc(-c5cnc(N)nc5)cc4)CC3)no2)cn1 [BI 0153],106.576% and 110.07%,80.0994% and 77.4652%,152.465% and 95.0889%,176.713% and 106.608%,115.747% and 91.3972%,95.3195% and 84.6939%
COCCN1CCC(c2cc(CN(C)C(=O)c3cccc(Oc4ccccc4)c3)ccn2)CC1,195.683% and 128.295%,160.805% and 131.439%,147.027% and 86.0124%,179.06% and 107.19%,116.465% and 111.692%,91.1118% and 90.2148%
CNC(=O)Nc1ccc(-c2nc(N3CC4CCC(C3)O4)c3cnn(C4CCC5(CC4)OCCO5)c3n2)cc1,5.405% and 12.6193%,4.979% and 10.7558%,16.963% and 8.004%,13.8845% and 13.3086%,32.2778% and 51.8467%,33.537% and 47.4991%
COc1cc(N2CCC(O)CC2)ccc1Nc1cc(Nc2ccccc2S(=O)(=O)C(C)C)c2cc[nH]c2n1,110.737% and 120.851%,95.8479% and 104.062%,95.9238% and 77.0453%,69.9407% and 56.4198%,85.5887% and 104.808%,115.828% and 93.8467%
O=C(/C=C/N1C[C@H]2C[C@@H]1CN2c1ccccn1)c1ccccc1O,142.277% and 136.268%,180.564% and 107.78%,108.639% and 102.241%,93.5613% and 97.7827%,136.807% and 131.679%,93.5448% and 99.3437%
CC(=O)Nc1ncc(CN2CCC[C@H](Cc3cc(C)nc(C)c3)C2)s1 [JNJ-65355394],89.0088% and 111.578%,103.026% and 113.793%,144.44% and 104.679%,146.748% and 114.826%,79.2381% and 103.709%,88.6271% and 113.344%
O=C(Nc1cccnn1)N1CCC(=Cc2cccc(Oc3ccc(C(F)(F)F)cn3)c2)CC1,84.0807% and 127.869%,104.052% and 107.077%,126.629% and 132.36%,65.2365% and 71.2669%,101.123% and 116.429%,106.817% and 109.694%
Cc1nc(NC(=O)N2CCC[C@H]2C(N)=O)sc1-c1ccnc(C(C)(C)C(F)(F)F)c1 [ALPELISIB],55.6533% and 63.4302%,57.1927% and 78.1491%,78.5129% and 75.0506%,83.7581% and 44.8119%,82.706% and 92.5436%,73.0527% and 85.7863%
c1ccc(C2CCN(c3cnc4c(N5CCOCC5)nccn34)CC2)cc1,145.966% and 120.992%,117.4% and 104.103%,180.042% and 107.897%,162.986% and 102.452%,115.301% and 98.0422%,102.772% and 73.1066%
CNC(=O)c1ccccc1Nc1cc(Nc2ccc(N3CCOCC3)cc2OC)ncc1C(F)(F)F [VS-4718],26.6369% and 55.3846%,24.9671% and 46.6122%,16.1966% and 32.4497%,15.3454% and 34.2982%,46.4172% and 62.2044%,35.2448% and 60.1632%
CN1C[C@H](Nc2cnn(C)c(=O)c2Br)C[C@H](c2ccccc2)C1,155.67% and 115.973%,127.596% and 115.428%,140.201% and 85.3168%,101.083% and 86.6646%,130.754% and 116.395%,102.417% and 96.6587%
O=C(NC[C@@H]1[C@H]2CN(C(=O)OCc3cc(C(F)(F)F)cc(C(F)(F)F)c3)C[C@@H]12)c1ccc2[nH]nnc2c1 [BI 2545],131.534% and 122.248%,107.128% and 130.293%,189.417% and 138.094%,118.998% and 92.5885%,93.6308% and 96.6365%,84.4904% and 89.2857%
C[C@@H]1CC(=O)Nc2cccc(-c3ccc4c(c3)c(-c3cnn(C)c3)nn4C)c2N1,59.3391% and 89.8792%,80.6716% and 83.4041%,75.8759% and 56.1051%,135.457% and 81.8182%,80.8439% and 121.097%,82.2884% and 110.621%
CCCS(=O)(=O)c1nc(NC2CC2)cc(-c2ccc3c(ccn3C3CC(C)(C)NC(C)(C)C3)c2)n1,33.8005% and 71.7584%,41.5782% and 52.8147%,90.8161% and 100.386%,72.9195% and 100.634%,108.157% and 124.037%,90.7114% and 110.084%

# Reference: ChEMBL document CHEMBL5724558, “Image-based profiling of drug vulnerabilities in CRC organoids” (2024)
